Among the data in paper PMC9920986 (Molecules, 2023) are IC50, CC50 and inhibition values, retold here.

Series [1] concerns the target T1, human recombinant NRH:quinone oxidoreductase (NQO2) (Homo sapiens, UniProt P16083).
T1 construct: purchased Sigma Q0380
T1 sequence (P16083 1-231): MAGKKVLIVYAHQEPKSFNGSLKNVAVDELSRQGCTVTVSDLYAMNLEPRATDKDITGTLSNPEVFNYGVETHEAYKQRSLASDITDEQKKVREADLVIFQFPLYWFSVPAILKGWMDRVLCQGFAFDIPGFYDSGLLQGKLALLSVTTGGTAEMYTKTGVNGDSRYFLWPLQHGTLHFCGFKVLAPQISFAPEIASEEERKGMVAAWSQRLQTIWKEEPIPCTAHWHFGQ
Briefly: biochemical. Conditions: for inhibition at 10 µM: read-out: NQO2 Inhibition, %. How it is done: The inhibition activity of all synthesized compounds at a concentration of 10 µM was preliminarily tested in vitro using human recombinant NRH:quinone oxidoreductase (NQO2).
The activity of recombinant human NQO2 (Sigma #Q0380, St. Louis, […], USA) was evaluated kinetically using menadione and N-benzyl-dihydronicotinamide (BNAH) as the substrate and co-substrate, respectively. All reagents and test compounds were dissolved in 50 mM Hepes-KOH (pH 7.4) containing 1 mM of β-octyl-D-glucopyranoside, 0.1 mg/mL BSA and 1 μM FAD. […] The solutions of the test compounds were pre-incubated for 5 min with 50 μL of human recombinant NQO2 (final concentration 42 ng/mL). Then, 25 μL of menadione was introduced at a final concentration of 100 μM. The reaction was started with 25 μL of 100 μM BNAH. The fluorescence of the co-substrate BNAH was followed at wavelengths of 370/440 nm at 37 °C using an Infinite M200 Pro microplate reader (Tecan, Grödig, Austria). The fluorescence data was fit according to a one-phase decay nonlinear regression to obtain slope values with Prism 8.0 (GraphPad Inc., San Diego, CA, USA). The activity in sample wells were normalized against negative control and enzyme-blank samples.

Series [2] can be described thus: Antiproliferative assay (MTT colorimetric test, 72 h). The settings on record: human, n.a. = not active, read-out: A549, CC50. It is filed as cell-based. An excerpt: The cytotoxicity of the synthesized oxindoles was studied using the A549 cell line in which the levels of NQO2 are increased (Table 4). […] The cytotoxicity of the compounds may be due to the inhibition of other enzymes associated with the activation of apoptosis in cancer cells, for example GSK3b or tyrosine kinases, or with the general non-specific toxicity of these compounds. Thus, the influence of NQO2 on A549 cell viability has not been established.
The A549 cells were maintained in F12-K (Gibco, Paisley, UK) supplemented with 10% fetal bovine serum (FBS, Gibco, UK), penicillin (100 UI mL^−1), streptomycin (100 µg mL^−1) and GlutaMax (2 mM, Gibco, UK). All cells line were cultured under a humidified atmosphere of 95% air/5% CO2 at 37 °C. Subconfluent monolayers, in the log growth phase, were harvested by a brief treatment with TrypLE Express solution (Gibco, UK) in phosphate-buffered saline (PBS, Capricorn Scientific, Ebsdorfergrund, Germany) and washed three times in serum-free PBS. The number of viable cells was determined by trypan blue exclusion.
The effects of the synthesized compounds on cell viability were determined using the MTT colorimetric test. All examined cells were diluted with the growth medium to 3.5 × 10^4 cells per mL and the aliquots (7 × 10^3 cells per 200 μL) were placed in individual wells in 96-multiplates (Eppendorf, Germany) and incubated for 24 h. […] After incubation, the cells were then treated with 40 μL MTT solution (3-(4,5-dimethylthiazol-2-yl)-2,5-diphenyltetrazolium bromide, 5 mg mL^−1 in PBS) and incubated for 4 h. After an additional 4 h incubation, the medium with MTT was removed and DMSO (150 μL) was added to dissolve the formazan crystals. The plates were shaken for 10 min. The optical density of each well was determined at 560 nm using a microplate reader GloMax Multi+ (Promega, Madison, WI, USA). Each of the tested compounds was evaluated for cytotoxicity in three separate experiments.
(In general: Tetrazolium dyes change colour on reduction, which living cells bring about.)

The mark [3] stands for this setting: recombinant human NQO2, 100 μM menadione, 100 μM BNAH, read-out: NQO2 IC50 ± SEM.

Each structure is given as a SMILES string. Like-named read-outs stand apart in the source and are kept apart here. Bounds are passed on as bounds.

One may read the IC50 as the concentration that gives 50% inhibition. For `O=C1Nc2ccc(NC(=O)c3ccccc3)cc2C1=Cc1ccc([N+](=O)[O-])cc1` (mixture of isomers) [Compound 29, 5-benzoylamino-3-((4-nitrophenyl)methylene)-2-oxindole], in series [1], the IC50 was more than 50 µM.
Broadly, the CC50 is the concentration that lowers cell viability or growth by half. The term inhibition denotes the change of the read-out against control, counted positive when it falls. For `O=C1Nc2ccc(Br)cc2C1=Cc1ccc(Br)cc1` (mixture of isomers) [Compound 31, 3-(4-bromobenzylidene)-5-bromo-2-oxindole], the CC50 at 72 h in series [2] came out at 242 ± 3.19 µM. For the same compound, the inhibition at 10 µM in series [1] came to 68.6%.
For `O=C1Nc2ccccc2/C1=C\c1ccccn1` [Compound 1, (E)-3-(2-pyridinylmethylidene)-2-oxindole], in series [2], the CC50 at 72 h came out at 48 ± 4.42 µM. Also, the 50% inhibitory concentration (IC50) in series [1] was more than 50 µM.
With `CN1C(=O)C(=Cc2ccccn2)c2ccccc21` [Compound 2, N-methyl-3-((pyridin-2-yl)methylene)-2-oxindole], the half-maximal inhibitory concentration (IC50) in series [1] was determined as 16.78 ± 0.09 µM.
As for `O=C1Nc2ccc(Br)cc2C1=Cc1ccccn1` [Compound 3, 5-bromo-3-(2-pyridinylmethylidene)-2-oxindole], the CC50 at 72 h in series [2] amounted to 90.6 ± 1.5 µM. Also, in series [1] (setting [3]), the half-maximal inhibitory concentration (IC50) is more than 50 µM.
With `O=C1Nc2ccc([N+](=O)[O-])cc2C1=Cc1ccccn1` [Compound 4, 5-nitro-3-(2-pyridinylmethylidene)-2-oxindole], the IC50 in series [1] is more than 50 µM.
With `CC(=O)Nc1ccc2c(c1)C(=Cc1ccccn1)C(=O)N2` [Compound 5, (E,Z)-3-(2-Pyridinylmethylidene)-5-acetamido-2-oxindole], in series [2], the 50% cytotoxic concentration (CC50) at 72 h came out at 136 µM. The IC50 in series [1] was determined as 41.1 ± 2.44 µM.
On to `O=C1Nc2ccc(NC(=O)c3ccccc3)cc2C1=Cc1ccccn1` [Compound 6, (E,Z)-3-(2-Pyridinylmethylidene)-5-benzoylamino-2-oxindole], for which, in series [2], the CC50 at 72 h stood at 17.4 ± 1.8 µM. The inhibition at 10 µM in series [1] is 43.1%.
The corresponding values for `O=C1Nc2ccccc2C1=Cc1cccnc1` [Compound 7, 3-(3-pyridinylmethylidene)-2-oxindole] are 67.5 ± 7.58 µM and 59.2%.
Taken in the same sequence, the figures for `O=C1Nc2ccc(Br)cc2C1=Cc1cccnc1` [Compound 8, 5-bromo-3-(3-pyridinylmethylidene)-2-oxindole] were 22.3 ± 1.42 µM and 44.2%.
Take `O=C1Nc2ccc([N+](=O)[O-])cc2C1=Cc1cccnc1` [Compound 9, 5-nitro-3-(3-pyridinylmethylidene)-2-oxidole]: the CC50 at 72 h in series [2] came out at 429 ± 24 µM. For the same compound, in series [1], the IC50 was more than 50 µM.
On to `O=C1Nc2ccccc2C1=Cc1ccncc1` [Compound 10, 3-(4-pyridinylmethylidene)-2-oxindole], for which the 50% cytotoxic concentration (CC50) at 72 h in series [2] amounted to 80.3 ± 9.87 µM. Further, the 50% inhibitory concentration (IC50) in series [1] (setting [3]) is more than 50 µM.
For the compound `O=C1Nc2ccc(Br)cc2C1=Cc1ccncc1` [Compound 11, 5-bromo-3-(4-pyridinylmethylidene)-2-oxindole], the CC50 at 72 h in series [2] came to 22.3 ± 1.42 µM. Further, the inhibition at 10 µM in series [1] was 41.9%.
`O=C1Nc2ccc([N+](=O)[O-])cc2C1=Cc1ccncc1` [Compound 12, 5-nitro-3-(4-pyridinylmethylidene)-2-oxindole]: the IC50 in series [1] (setting [3]) is more than 50 µM.
As to `CC(=O)Nc1ccc2c(c1)C(=Cc1cccc(O)c1)C(=O)N2` [Compound 13, 3-(3-hydroxybenzylidene)-5-acetylamino-2-oxindole], the CC50 at 72 h in series [2] is 176 ± 4.76 µM. In series [1], the IC50 was found to be 0.64 ± 0.04 µM.
As for `CN1C(=O)C(=Cc2ccc(O)cc2)c2ccccc21` [Compound 15, 3-(4-hydroxybenzylidene)-N-methyl-2-oxindole], in series [1] (setting [3]), the IC50 was determined as 0.62 ± 0.04 µM.
Still for that read-out and setting: as for `CC(=O)Nc1ccc2c(c1)C(=Cc1ccc(O)cc1)C(=O)N2` [Compound 16, (E,Z)-3-(4-Hydroxybenzylidene)-5-acetamido-2-oxindole], the figure is 0.99 ± 0.03 µM; as for `CCOc1ccc(/C=C2/C(=O)Nc3ccccc32)cc1` [Compound 22, (E)-3-(4-Ethoxybenzylidene)-2-oxindole], more than 50 µM.
`COc1cc(C=C2C(=O)Nc3ccc(NC(=O)c4ccccc4)cc32)cc(OC)c1O` [Compound 26, (E,Z)-3-(3,5-Dimethoxy-4-hydroxybenzylidene)-5-benzoylamino-2-oxindole]: the inhibition at 10 µM in series [1] was 40.5%.
On to `O=C1Nc2ccccc2C1=Cc1ccc([N+](=O)[O-])cc1` [Compound 27, 3-((4-nitrophenyl)methylene)-2-oxindole], for which the concentration for half-maximal inhibition (IC50) in series [1] was more than 50 µM.
In the case of `COC(=O)Nc1ccc2c(c1)C(=Cc1ccc([N+](=O)[O-])cc1)C(=O)N2` [Compound 28, 3-(4-nitrobenzylidene)-5-(methoxycarbonylamino)-2-oxindole], in series [1], the inhibition at 10 µM was found to be 74%.
With `CN(C)c1ccc(C=C2C(=O)Nc3ccccc32)cc1` [Compound 30, (E,Z)-3-(4-Dimethylaminobenzylidene)-2-oxindole], the concentration for half-maximal inhibition (IC50) in series [1] is more than 50 µM.
With `COC(=O)Nc1ccc2c(c1)C(=Cc1ccc(Br)cc1)C(=O)N2` [Compound 32, 3-(4-bromobenzylidene)-5-(methoxycarbonylamino)-2-oxindole], the IC50 in series [1] was determined as 0.61 ± 0.03 µM.
Regarding `CCOC(=O)c1[nH]ncc1C=C1C(=O)Nc2ccccc21` [Compound 39, 3-((5-ethoxycarbonyl-1H-pyrazol-4-yl)methylene)-2-oxindole], the CC50 at 72 h in series [2] was 231 µM.
Take `CCOC(=O)c1[nH]ncc1C=C1C(=O)Nc2ccc([N+](=O)[O-])cc21` [Compound 40, 3-((5-ethoxycarbonyl-1H-pyrazol-4-yl)methylene)-5-nitro-2-oxindole]: the IC50 in series [1] was found to be 1.88 ± 0.08 µM.
Still for that read-out and setting: next, `Cn1cc(C=C2C(=O)Nc3ccccc32)cn1` [Compound 41, 3-((1-methyl-1H-pyrazol-4-yl)methylene)-2-oxindole]: 9.4 ± 0.12 µM.
`Cc1n[nH]c(C)c1C=C1C(=O)Nc2ccccc21` [Compound 42, 3-((3,5-dimethyl-1H-pyrazol-4-yl)methylene)-2-oxindole]: the inhibition at 10 µM in series [1] was 54.4%.
Still for that read-out and setting: next, `Cc1nn(-c2ccccc2)c(C)c1C=C1C(=O)Nc2ccccc21` [Compound 44, 3-((3,5-dimethyl-1-phenyl-1H-pyrazol-4-yl)methylene)-2-oxindole]: 43.6%.
In the case of `COC(=O)CCn1cc(C=C2C(=O)Nc3ccccc32)cn1` [Compound 45, (E,Z)-3-(1-[2-(Methoxycarbonyl)ethyl]-1H-pyrazol-4-ylmethylidene)-2-oxindole], the IC50 in series [1] was more than 50 µM.
On the same count and under the same terms, next, `Nc1ccc(CC2C(=O)Nc3ccccc32)cc1` (stereo not shown) [Compound 46, 3-(4-aminobenzyl)-2-oxindole]: more than 50 µM.
With `Nc1ccc2c(c1)C(Cc1ccccn1)C(=O)N2` (stereo not shown) [Compound 47, 3-(pyridin-2-ylmethyl)-5-amino-2-oxindole], the IC50 in series [1] (setting [3]) is more than 50 µM.
Still for that read-out and setting: next, `COc1ccc2c(c1)C(O)(CC(=O)c1ccc(C)cc1)C(=O)N2` (stereo not shown) [Compound 48, 3-hydroxy-5-methoxy-3-[2-(4-methylphenyl)-2-oxoethyl]-2-oxindole]: more than 50 µM; `Cc1ccc(C(=O)CC2(O)C(=O)Nc3ccc(Br)cc32)cc1` (stereo not shown) [Compound 49, 3-hydroxy-5-bromo-3-[2-(4-methylphenyl)-2-oxoethyl]-2-oxindole]: more than 50 µM.
For `Cc1ccc(C(=O)CC2(O)C(=O)Nc3ccc(NC(=O)c4ccco4)cc32)cc1` (stereo not shown) [Compound 51, 3-hydroxy-5-(2-furoylamino)-3-[2-(4-methylphenyl)-2-oxoethyl]-2-oxindole], in series [1], the IC50 is more than 50 µM.
Take `O=c1c(O)c(-c2ccc(O)c(O)c2)oc2cc(O)cc(O)c12` [Quercetin, reference compound]: the half-maximal inhibitory concentration (IC50) in series [1] (setting [3]) turned out to be 0.08 ± 0.02 µM.
